The results in this text go back to patent publication US8148333B2, “Stable composition comprising a PTHrP analogue” (priority 2006, dated 2012).

Each structure is given as a SMILES string.

One series relates to Bacteria; Yeast and mold. Kind of series: Anti-microbial effectiveness test, overall result (conformity). The series is classed as cell-based. The note with it: for preservative effectiveness results for both Bacteria and Yeasts/moulds: immediately after manufacture.
In a further series the test system is bacteria, yeast and mold. Kind of series: Preservative effectiveness test, screening of preservatives (Table 3). Type of series: cell-based. The note with it: Table 3 screening. Here is the method: Solutions were prepared containing [Glu^22,25, Leu^23,28,31, Aib29, Lys^26,31]hPTHrP(1-34)NH2 (SEQ ID NO.: 2) 2 mg/ml, acetate buffer 6 mM and water for injection, with various different preservatives added at concentrations recommended for effective antimicrobial activity. Solutions were prepared at room temperature, by dissolution of the various ingredients in water for injection, with stirring over <30 minutes to ensure complete dissolution, Solutions were filtered through 0.2 micron filter and filled into glass vials, to which a rubber stopper was applied and crimped in place to ensure complete closure.
The solution with methylparaben was less acceptable due to precipitation and inactivity immediately after manufacture of the solution. The solutions were then stored for up to 3 months at 25° C., and up to 4.5 months at 5° C. and the preservative effectiveness test repeated. as described in Example 5.

Series [1] can be described thus: Chemical stability of formulations: (SEQ ID NO.: 2) content (Table 6). Type of series: physicochemical. The conditions noted are these: formulations of Table 6. The source says: TABLE 6 details the chemical stability of the formulations described in Example 4.

Regarding `OCc1ccccc1` [Benzyl Alcohol], the “efficacy against Bacteria” value in the series with Bacteria; Yeast and mold (after 3 and 4.5 months storage) is recorded as “not compliant”. In addition, the “preservative effectiveness results for both Bacteria and Yeasts/moulds” value in the series with Bacteria; Yeast and mold was “compliant”. The “suitability as preservative for use with SEQ ID NO.: 2 (precipitation and/or inactivity in preservative activity)” value in the series with bacteria, yeast and mold is “not suitable”. In the case of `COC(=O)c1ccc(O)cc1` [Methyparaben], the “suitability as preservative for use with SEQ ID NO.: 2 (precipitation and/or inactivity in preservative activity)” value with bacteria, yeast and mold is “not suitable”. As to `Oc1ccccc1` [Phenol], the “preservative efficacy for both Bacteria and Yeasts/moulds” value in the series on Bacteria; Yeast and mold (after 3 and 4.5 months storage) is on record as “maintained”. Also, in the series on Bacteria; Yeast and mold, the “preservative effectiveness results for both Bacteria and Yeasts/moulds” value is given as “compliant”. On to `CC[C@H](C)[C@H](NC(=O)[C@H](CO)NC(=O)[C@H](CCCCN)NC(=O)CNC(=O)[C@H](CCCCN)NC(=O)[C@H](CC(=O)O)NC(=O)[C@H](Cc1cnc[nH]1)NC(=O)[C@H](CC(C)C)NC(=O)[C@H](CC(C)C)NC(=O)[C@H](CCC(N)=O)NC(=O)[C@H](Cc1cnc[nH]1)NC(=O)[C@H](CCC(=O)O)NC(=O)[C@H](CO)NC(=O)[C@@H](NC(=O)[C@H](C)N)C(C)C)C(=O)N[C@@H](CCC(N)=O)C(=O)N[C@@H](CC(=O)O)C(=O)N[C@@H](CC(C)C)C(=O)N[C@@H](CCCNC(=N)N)C(=O)N[C@@H](CCCNC(=N)N)C(=O)N[C@@H](CCCNC(=N)N)C(=O)N[C@@H](CCC(=O)O)C(=O)N[C@@H](CC(C)C)C(=O)N[C@@H](CC(C)C)C(=O)N[C@@H](CCC(=O)O)C(=O)N[C@@H](CCCCN)C(=O)N[C@@H](CC(C)C)C(=O)N[C@@H](CC(C)C)C(=O)NC(C)(C)C(=O)N[C@@H](CCCCN)C(=O)N[C@@H](CC(C)C)C(=O)N[C@@H](Cc1cnc[nH]1)C(=O)N[C@H](C(=O)N[C@@H](C)C(N)=O)[C@@H](C)O` [SEQ ID NO.: 2, [Glu^22,25, Leu^23,28,31, Aib^29, Lys^26,30]hPTHrP(1-34)NH2], for which the “solution stability, influence of the preservative selected” value in series [1] was “not significantly influenced”.
